Test results from patent publication US9938269B2, “Inhibitor compounds of phosphodiesterase type 10A” (ABBVIE INC., priority 2011, dated 2018).
pIC50: −log10 of the molar value. Counter-ions that a name gives are not always drawn.

Legend:
PDE10A (human) = biological target: T1, PDE10A (human) (Homo sapiens, UniProt Q9Y233); experiment: Measurement of PDE activity (HTRF cAMP kit), human PDE10A; assay type: biochemical; details: PDE enzymatic reaction, substrate 20 nM for PDE10, 60 minutes at 29 C
T1 construct: purchased BPS Bioscience
How it was run: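 HTRF detection of cAMP left after hydrolysis, expressed as percent of uninhibited control to derive IC50. Reaction: serially diluted inhibitor mixed with recombinant enzyme, started with 20 nM cAMP, 60 min at 29 °C in Tris-HCl pH 7.5 buffer containing MgCl2 and BSA.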

[1] = Determination of the microsomal half-life, rat liver microsomes; details: rat, liver microsomes, pH 7.4
[2] = Determination of the microsomal half-life, human liver microsomes; details: human, liver microsomes, pH 7.4

T1 sequence (Q9Y233 whole entry): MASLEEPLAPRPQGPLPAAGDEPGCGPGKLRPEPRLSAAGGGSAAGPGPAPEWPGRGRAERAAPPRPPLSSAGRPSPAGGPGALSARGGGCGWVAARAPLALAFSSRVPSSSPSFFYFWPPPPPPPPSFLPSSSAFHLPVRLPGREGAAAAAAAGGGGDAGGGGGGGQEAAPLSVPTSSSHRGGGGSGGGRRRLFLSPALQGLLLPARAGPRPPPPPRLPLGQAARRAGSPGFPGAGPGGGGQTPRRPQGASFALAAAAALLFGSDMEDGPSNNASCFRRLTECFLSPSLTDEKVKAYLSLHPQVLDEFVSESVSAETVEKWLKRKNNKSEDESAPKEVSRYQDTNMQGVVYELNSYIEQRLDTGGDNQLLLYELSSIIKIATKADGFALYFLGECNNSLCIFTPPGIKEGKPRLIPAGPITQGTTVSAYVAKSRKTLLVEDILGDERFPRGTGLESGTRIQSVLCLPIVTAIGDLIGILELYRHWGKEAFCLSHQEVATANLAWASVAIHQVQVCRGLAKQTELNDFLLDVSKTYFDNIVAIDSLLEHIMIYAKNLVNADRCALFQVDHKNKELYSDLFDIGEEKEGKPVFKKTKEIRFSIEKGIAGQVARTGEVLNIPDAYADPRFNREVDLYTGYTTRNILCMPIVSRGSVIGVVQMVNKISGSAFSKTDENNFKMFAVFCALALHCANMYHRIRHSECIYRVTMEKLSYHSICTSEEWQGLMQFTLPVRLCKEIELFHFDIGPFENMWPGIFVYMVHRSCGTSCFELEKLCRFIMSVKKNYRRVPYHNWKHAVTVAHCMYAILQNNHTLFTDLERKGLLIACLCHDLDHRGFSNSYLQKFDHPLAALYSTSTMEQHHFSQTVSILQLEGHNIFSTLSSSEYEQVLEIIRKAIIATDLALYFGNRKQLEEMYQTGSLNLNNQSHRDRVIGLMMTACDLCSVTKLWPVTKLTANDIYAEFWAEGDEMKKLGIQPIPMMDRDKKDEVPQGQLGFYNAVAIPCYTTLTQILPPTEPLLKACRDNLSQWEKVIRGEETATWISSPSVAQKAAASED

Row | pIC50 (PDE10A (human)) | microsomal CLint at 0.5 μM [1] [µL/min/mg] | microsomal CLint at 0.5 μM [2] [µL/min/mg] | Structure (SMILES)
1 | 6.30 to 6.70 | < 100 | < 100 | Cn1nccc1-c1ccnc2c1CN(CCc1ccc3ccccc3n1)C2=O [compound 459, 4-(2-Methyl-2H-pyrazol-3-yl)-6-(2-quinolin-2-yl-ethyl)-5,6-dihydro-pyrrolo[3,4-b]pyridin-7-one trifluoroacetate]
2 | > 7.00 | > 220 | 100 to 220 | COc1ccc(-c2ccnc3c2C(=O)N(CCc2ccc4ccccc4n2)C3)cc1 [Example 161, 4-(4-Methoxy-phenyl)-6-(2-quinolin-2-yl-ethyl)-6,7-dihydro-pyrrolo[3,4-b]pyridin-5-one]
3 | > 7.00 | < 100 | > 220 | COc1ccc(N2CCOCC2)c2c1CN(CCc1nc3ccccc3n1C)C2=O [Example 371, 4-Methoxy-2-[2-(1-methyl-1H-benzoimidazol-2-yl)-ethyl]-7-morpholin-4-yl-2,3-dihydro-isoindol-1-one]
4 | > 7.00 | < 100 | < 100 | Cn1c(CCN2Cc3nccc(-c4cncnc4)c3C2=O)nc2ccccc21 [Example 364, 6-[2-(1-Methyl-1H-benzoimidazol-2-yl)-ethyl]-4-pyrimidin-5-yl-6,7-dihydro-pyrrolo[3,4-b]pyridin-5-one]
5 | 6.70 to 7.00 | < 100 | < 100 | O=C(O)C1CCN(c2ccnc3c2C(=O)N(CCc2ccc4ccccc4n2)C3)CC1 [Example 366, 1-[5-Oxo-6-(2-quinolin-2-yl-ethyl)-6,7-dihydro-5H-pyrrolo[3,4-b]pyridin-4-yl]-piperidine-4-carboxylic acid]
6 | 6.30 to 6.70 | < 100 | < 100 | O=C1c2c(cccc2NC2CNC2)CN1CCc1ccc2ccccc2n1 [Example 145, 7-(Azetidin-3-ylamino)-2-(2-quinolin-2-yl-ethyl)-2,3-dihydro-isoindol-1-one]
7 | > 7.00 | < 100 | 100 to 220 | Cn1c(CCN2Cc3cccc(N4CCOCC4)c3C2=O)nc2cc(F)ccc21 [Example 262, 2-[2-(5-Fluoro-1-methyl-1H-benzoimidazol-2-yl)-ethyl]-7-morpholin-4-yl-2,3-dihydro-isoindol-1-one]
8 | > 7.00 | < 100 | < 100 | COC(=O)C1CN(Cc2cccc3c2C(=O)N(CCc2ccc4ccccc4n2)C3)C1 [compound 531, 1-[3-Oxo-2-(2-quinolin-2-yl-ethyl)-2,3-dihydro-1H-isoindol-4-ylmethyl]-azetidine-3-carboxylic acid methyl ester]
9 | > 7.00 | > 220 | 100 to 220 | O=C1c2c(N3CCC(CF)C3)ccnc2CN1CCc1nc2ccccc2s1 (stereo not drawn) [compound 387, 6-[2-(1,3-Benzothiazol-2-yl)ethyl]-4-[3-(fluoromethyl)pyrrolidin-1-yl]-7H-pyrrolo[3,4-b]pyridin-5-one]
10 | > 7.00 | < 100 | < 100 | O=C1c2c(-c3ccncc3)ccnc2CN1CCc1cnc2ccccc2n1 [compound 465, 4-(4-Pyridyl)-6-(2-quinoxalin-2-ylethyl)-7H-pyrrolo[3,4-b]pyridin-5-one]
11 | > 7.00 | 100 to 220 | > 220 | O=C1c2c(cccc2-c2cncnc2)CN1CCc1ccc2sccc2n1 [Example 559, 7-Pyrimidin-5-yl-2-(2-thieno[3,2-b]pyridin-5-ylethyl)isoindolin-1-one]
12 | > 7.00 | 100 to 220 | > 220 | Cn1c(CCN2Cc3cccc(-c4ccncc4)c3C2=O)nc2ccccc21 [Example 195, 2-[2-(1-Methyl-1H-benzoimidazol-2-yl)-ethyl]-7-pyridin-4-yl-2,3-dihydro-isoindol-1-one]
13 | > 7.00 | < 100 | 100 to 220 | O=C1c2c(-c3cccnc3)ccc(F)c2CN1CCc1cn2ccccc2n1 [Example 378, 4-Fluoro-2-(2-imidazo[1,2-a]pyridin-2-yl-ethyl)-7-pyridin-3-yl-2,3-dihydro-isoindol-1-one]
14 | 6.30 to 6.70 | 100 to 220 | 100 to 220 | O=C1c2c(cccc2N2CCOCC2)CN1CCc1nc2ccccc2n1C(F)F [compound 449, 2-[2-(1-Difluoromethyl-1H-benzoimidazol-2-yl)-ethyl]-7-morpholin-4-yl-2,3-dihydro-isoindol-1-one trifluoroacetate]
15 | > 7.00 | < 100 | < 100 | COc1ccc(-c2cncnc2)c2c1C(=O)N(CCc1cn3ccccc3n1)C2 [compound 549, 2-(2-Imidazo[1,2-a]pyridin-2-yl-ethyl)-7-methoxy-4-pyrimidin-5-yl-2,3-dihydro-isoindol-1-one trifluoroacetate]
16 | > 7.00 | < 100 | < 100 | O=C1c2c(-c3cn[nH]c3)ccc(F)c2CN1CCc1cn2ccccc2n1 [Example 383, 4-Fluoro-2-(2-imidazo[1,2-a]pyridin-2-yl-ethyl)-7-(1H-pyrazol-4-yl)-2,3-dihydro-isoindol-1-one]
17 | 6.70 to 7.00 | < 100 | < 100 | COc1ccc(-c2cc[nH]n2)c2c1C(=O)N(CCc1cn3ccccc3n1)C2 [compound 454, 2-(2-Imidazo[1,2-a]pyridin-2-yl-ethyl)-7-methoxy-4-(1H-pyrazol-3-yl)-2,3-dihydro-isoindol-1-one]
18 | > 7.00 | < 100 | 100 to 220 | O=C1c2c(cccc2-c2cccnc2)CN1CCc1cn2ccccc2n1 [Example 235, 2-(2-Imidazo[1,2-a]pyridin-2-yl-ethyl)-7-pyridin-3-yl-2,3-dihydro-isoindol-1-one]
19 | > 7.00 | > 220 | < 100 | COc1ccc(N2CCN(C)CC2)c2c1CN(CCc1ccc3ccccc3n1)C2=O [Example 261, 4-Methoxy-7-(4-methyl-piperazin-1-yl)-2-(2-quinolin-2-yl-ethyl)-2,3-dihydro-isoindol-1-one di-trifluoroacetate]
20 | 6.70 to 7.00 | 100 to 220 | 100 to 220 | COc1cccc(CCN2Cc3nccc(-c4cccnc4)c3C2=O)n1 [compound 503, 6-[2-(6-Methoxy-2-pyridyl)ethyl]-4-(3-pyridyl)-7H-pyrrolo[3,4-b]pyridin-5-one trifluoroacetate]
21 | 6.70 to 7.00 | 100 to 220 | < 100 | O=C1c2c(-c3ccc(F)cc3)ccnc2CN1CCc1nc2ccccc2s1 [compound 542, 6-[2-(1,3-Benzothiazol-2-yl)ethyl]-4-(4-fluorophenyl)-7H-pyrrolo[3,4-b]pyridin-5-one trifluoroacetate]
22 | > 7.00 | < 100 | < 100 | O=C1c2c(-c3cncnc3)cc[n+]([O-])c2CN1CCc1ccc2ccccc2n1 [Example 296, 1-Oxy-4-pyrimidin-5-yl-6-(2-quinolin-2-yl-ethyl)-6,7-dihydro-pyrrolo[3,4-b]pyridin-5-one]
23 | 6.70 to 7.00 | 100 to 220 | 100 to 220 | Cc1cnc(CCN2Cc3nccc(-c4ccncc4)c3C2=O)c(C)c1 [compound 473, 6-[2-(3,5-Dimethyl-2-pyridyl)ethyl]-4-(4-pyridyl)-7H-pyrrolo[3,4-b]pyridin-5-one]
24 | > 7.00 | 100 to 220 | 100 to 220 | COc1ccc(N2CCS(=O)(=O)CC2)c2c1CN(CCc1ccc3ccccc3n1)C2=O [Example 189, 7-(1,1-Dioxo-thiomorpholin-4-yl)-4-methoxy-2-(2-quinolin-2-yl-ethyl)-2,3-dihydro-isoindol-1-one]
25 | > 7.00 | 100 to 220 | 100 to 220 | Cc1ncc(-c2ccnc3c2C(=O)N(CCc2ccc4ccccc4n2)C3)s1 [Example 326, 4-(2-Methyl-thiazol-5-yl)-6-(2-quinolin-2-yl-ethyl)-6,7-dihydro-pyrrolo[3,4-b]pyridin-5-one]
26 | > 7.00 | > 220 | 100 to 220 | O=C1c2cccc(N3CCS(=O)(=O)CC3)c2C(=O)N1CCc1ccc2ccccc2n1 [Example 250, 4-(1,1-Dioxothiomorpholin-4-yl)-2-(2-quinolin-2-yl-ethyl)-isoindole-1,3-dione]
27 | > 7.00 | 100 to 220 | > 220 | O=C1c2c(N3CCOCC3)ccnc2CN1CCc1nc2ccc(F)cc2s1 [compound 405, 6-[2-(6-Fluoro-1,3-benzothiazol-2-yl)ethyl]-4-morpholino-7H-pyrrolo[3,4-b]pyridin-5-one]
28 | > 7.00 | > 220 | 100 to 220 | [2H]c1nc2c(c(N3C([2H])([2H])C([2H])([2H])OC([2H])([2H])C3([2H])[2H])c1[2H])C(=O)N(C([2H])([2H])Cc1nc3c([2H])c([2H])c([2H])c([2H])c3c([2H])c1[2H])C2([2H])[2H] [compound 510, 2,3,7,7-Tetradeuterio-6-[1,1-dideuterio-2-(3,4,5,6,7,8-hexadeuterio-2-quinolyl)ethyl]-4-(2,2,3,3,5,5,6,6-octadeuteriomorpholin-4-yl)pyrrolo[3,4-b]pyridin-5-one]
29 | 6.30 to 6.70 | < 100 | < 100 | CN(C)C1CCN(c2ccnc3c2C(=O)N(CCc2ccc4ccccc4n2)C3)CC1 [Example 363, 4-(4-Dimethylamino-piperidin-1-yl)-6-(2-quinolin-2-yl-ethyl)-6,7-dihydro-pyrrolo[3,4-b]pyridin-5-one hydrochloride]
